Values of other authors in patent US20210008209A1, “COMBINATION THERAPY FOR TTR AMYLOIDOSIS” (Corino Therapeutics, Inc., priority 2018, published 2021).

Tests used:
TTR native tetramer [1] = target: T1, TTR native tetramer (Homo sapiens, UniProt P02766); settings: humans
T1 construct: host or cells: humans (in vivo)

TTR = target: T2, TTR (Homo sapiens, UniProt P02766)
T2 construct: host or cells: human plasma

TTR native tetramer [2] = settings: mice

- stabilization of the native tetramer in vivo (TTR native tetramer [1]): stabilizes the native tetramer
- binding to TTR in human plasma (TTR): binds specifically to TTR
SMILES: Cc1ccc(C(=O)c2cc(O)c(O)c([N+](=O)[O-])c2)cc1 [Tolcapone, tolcapone]
- TTR cytotoxicity (TTR cytotoxicity): inhibits TTR cytotoxicity
- stabilization of the native tetramer in vivo (TTR native tetramer [2]): stabilizes the native tetramer
